Article PMC9045377, “CpxA Phosphatase Inhibitor Activates CpxRA and Is a Potential Treatment for Uropathogenic Escherichia coli in a Murine Model of Infection” (Microbiology Spectrum, 2022)
“Also recorded” adds a separate entry of the source. Structures can show the parent of a compound that is named as a salt.

Assays:
UPEC strain CFT073 [1] = type: in vivo, Escherichia coli (in female CBA/J mice); details: compound 6 trial
Method: Four groups of eight female CBA/J mice were transurethrally inoculated with a target dose of ∼10^8 CFU of either CFT073 or CFT073ΔcpxA::cat. One group was treated with ciprofloxacin (2.5 mg/kg/dose dissolved in sterile distilled water) s.c. 12, 24, 36, 48, and 60 h after inoculation with CFT073 as described ([31]). The untreated CFT073 and CFT073ΔcpxA::cat inoculated groups were given the vehicle control s.c. at 12, 24, 36, 48, and 60 h after inoculation. The compound 6 treated group were given the drug (100 mg/kg) s.c. at 12, 36, and 60 h after inoculation with CFT073 and received the vehicle control s.c. at 24 and 48 h. The animals were sacrificed 4 h after the last treatment (64 h postinoculation) and CFU per milliliter or CFU per gram of tissue was determined in the urine, bladder, and kidneys.
Animal experiments were conducted according to the guidelines of the University of Michigan Institutional Animal Care and Use Committee. For the animal infection experiments, bacterial strains were cultured at 37°C in LB medium overnight with shaking ([30]). Female CBA/J mice (Jackson Laboratories, Bar Harbor, ME) were inoculated transurethrally with a target dose of ∼10^8 CFU of CFT073 or CFT073ΔcpxA::cat. Mice were subsequently treated 12 h later either with the vehicle, ciprofloxacin hydrochloride (PanReac AppliChem ITW Reagents; Jade Scientific), compound 1, compound 6, or compound 26 as described in Results and euthanized 4 h after the last treatment. Bacterial loads of each strain were calculated from the urine, bladder, and kidneys of mice as previously described; the limits of detection for these assays were 100 CFU/mL or 100 CFU/g of urine and tissue, respectively ([33]). Values of 50 CFU/mL or 50 CFU/g were assigned to specimens whose yields were below the limit of detection.
Due to the extreme skewness of the data, natural log transformation was used before the data were analyzed statistically. Descriptive statistics were calculated for all of the log-transformed variables. Statistical comparisons were done using analysis of variance (ANOVA) with follow-up pairwise tests adjusted for multiple comparisons using the Tukey procedure.

UPEC strain CFT073 [2] = type: in vivo, Escherichia coli (in female CBA/J mice)
[3] = Toxicity / clinical signs in mice; type: in vivo, female CBA/J mice; details: 100 mg/kg s.c. twice a day for 3 days
Method: We tested our initial hit, compound 1 ([31]) (Fig. 1), for toxicity in a murine model using criteria described in Materials and Methods. […] To test compound 1 for efficacy, female CBA/J mice were transurethrally inoculated with ∼1 × 10^8 CFU of UPEC strain CFT073; 12 h later, mice were treated with 100 mg/kg compound 1 (n = 10) or the vehicle control (n = 5) s.c. twice a day for 3 days and then sacrificed 4 h after the last dose. No effect was seen on the recovery of E. coli CFT073 in the urine, bladder, or kidneys (see Fig. S1 in the supplemental material). As compound 1 lacked efficacy, we aimed to improve the scaffold to enhance potency and eliminate the nitro group liability ([32]).
We developed a high-performance liquid chromatography-tandem mass spectrometry (HPLC-MS/MS) assay to measure compound 6 with a lower limit of quantification of 1 ng/mL. Single-dose PK parameters of compound 6 were determined in female CBA/J mice (n = 15) given 100 mg/kg s.c. dissolved in the vehicle. Blood was obtained from groups of 3 mice 1, 2, 4, 8, and 24 h postinjection.
Animal experiments were conducted according to the guidelines of the Indiana University School of Medicine Institutional Animal Care and Use Committee by the IU Simon Comprehensive Cancer Center In Vivo Therapeutics Core, a component of the Indiana Clinical Translational Science Institute. For the pilot toxicity study with compound 1, 4- to 6-week-old CBA/J female mice were obtained from Jackson Laboratory (Bar Harbor, ME) and were treated with compound 1 or the vehicle control twice a day for 3 days as described in the results. […] Toxicity was determined by the following criteria: deteriorating health-hunched posture, lack of grooming, failure to thrive, failure to eat and drink for >48 h, rapid loss of 15 to 20% body weight, inactivity with hunched posture, loss of righting reflex and inability to maintain upright posture, loss of general body condition with spine becoming visible, and dehiscence of wounds and/or evidence of infection at injection sites not responsive to veterinary treatment.

CpxRA = system: CpxRA; parameters: method as in PMID 31104993; details: β-galactosidase reporter assay in E. coli; read-out: mean 50% effective concentration (EC50), CpxRA activation; cited from earlier work

| SMILES | CFU of CFT073 recovered in urine vs CFT073-inoculated vehicle control (UPEC strain CFT073 [1]; 8 mice/group, compound 6 100 mg/kg s.c. at 12, 36, 60 h, ciprofloxacin 2.5 mg/kg/dose s.c. at 12, 24, 36, 48, 60 h, sacrifice 64 h) | CFU of CFT073 recovered in kidneys vs CFT073-inoculated vehicle control (UPEC strain CFT073 [1]; same regimens) | recoverable CFU in urine vs CFT073-inoculated vehicle-treated controls (UPEC strain CFT073 [2]; compound 26 trial, 8 mice/group, compound 26 100 mg/kg s.c. at 12, 36, 60 h, ciprofloxacin 2.5 mg/kg/dose s.c. at 12, 24, 36, 48, 60 h, sacrifice 64 h) | recoverable CFU in kidneys vs CFT073-inoculated vehicle-treated controls (UPEC strain CFT073 [2]; compound 26 trial, same regimens) | duration of decreased activity after each dose [3] [min] | toxicity ([3]; n = 3, observed 14 days) | EC50 (CpxRA) [µM] | recovery of E. coli CFT073 in the urine, bladder, or kidneys vs vehicle control (UPEC strain CFT073 [2]; 100 mg/kg s.c. twice a day for 3 days from 12 h after ~1 × 10^8 CFU transurethral, sacrificed 4 h after last dose) |
| --- | --- | --- | --- | --- | --- | --- | --- | --- |
| O=C(O)c1cn(C2CC2)c2cc(N3CCNCC3)c(F)cc2c1=O [ciprofloxacin, ciprofloxacin hydrochloride, reference compound] | significantly reduced | significantly reduced | significantly lower | significantly lower |  |  |  |  |
| NC1CCCc2c1[nH]c1ccc([N+](=O)[O-])cc21 (centres unmarked) [compound 1, 6-nitro-2,3,4,9-tetrahydro-1H-carbazol-1-amine] |  |  |  |  | 20 | exhibited no toxicity | 24.8 | no significant; also recorded: No effect |
